# Experiments:
# Cas-1 in THP-1 cells = test: Confocal fluorescence imaging of Cas-1 in THP-1 cells; type: cell-based; details: for intracellular fluorescence intensity, ATP stimulation / intracellular fluorescence intensity, Nig stimulation: LPS 1 μg/mL 4 h, probe 5 μM 1 h; for intracellular fluorescence intensity, ATP stimulation: then ATP 2 mM 0, 1, 2 h; for intracellular fluorescence intensity, Nig stimulation: then Nig 10 μM 0, 1, 2 h
# Description: To assess the capability of FPy1 and YPy1 to monitor endogenous Cas-1, the classic NLRP3 inflammasome-mediated Cas-1 activation model was established in THP-1 cells. THP-1 cells were initially stimulated with LPS (1 μg mL^−1) for 4 h to prime the production of NLRP3 inflammasome-associated proteins. Subsequently, the cells were stimulated with Nigericin (Nig, 10 μM) or ATP (2 mM) for various durations to induce the activation of Cas-1 and the pyroptosis-related pathway. The THP-1 cells were further stained with FPy1 or Ypy1 (5 μM) for 1 h and imaged (Fig. 3a). […] Western blot (WB) analysis confirmed that, regardless of whether Nig or ATP was used as the stimulant, the level of activated Cas-1 was consistent with the fluorescence imaging results (Fig. S8a–d). […] Therefore, FPy1 may be a more suitable candidate for monitoring low caspase-1 levels in subsequent imaging studies. […] To investigate the distribution of FPy1 within cells, THP-1 cells were co-stained with FPy1 and commercially available organelle-tracking dyes, including Mito-Tracker Green (mitochondria), Golgi-Tracker Green (Golgi apparatus), Lyso-Tracker Green (lysosomes) and ER-Tracker Green (endoplasmic reticulum). All dyes were imaged in the green fluorescence channel to avoid overlap with the red emission of FPy1 (Fig. 3f–i). […] The corresponding Pearson's correlation coefficients for mitochondria, Golgi apparatus, lysosomes, and endoplasmic reticulum were 0.4954, 0.4320, 0.5682, and 0.4448, respectively. […] To further confirm the specificity of FPy1 for Cas-1 imaging in living cells, THP-1 cells with Cas-1 knockdown via siRNA were constructed. […]
# Intracellular imaging with FPy1 in THP-1 cells
# THP-1 cells were seeded in dishes and cultured overnight. After stimulation with LPS (1 μg/mL in RPMI 1640 medium) for 4 hours, the cells were further treated with Nig (10 μM) or ATP (2 mM) for 0, 1, 2 hours. The medium was then replaced with fresh medium with FPy1 (5 μM), and cells were incubated at 37 °C for 1 hour before being washed twice […]
# with PBS. […]
# After washing, the THP-1 cells were separately incubated with commercially available dyes targeting mitochondria (Mito-Tracker Green), lysosomes (Lyso-Tracker Green), endoplasmic reticulum (ER-Tracker Green), and Golgi apparatus (Golgi-Tracker Green) for 30 minutes. […]
# Nucleus pulposus spheroid cultivation […]
# Intracellular imaging in nucleus pulposus cells and 3D cell spheroids
# The primary nucleus pulposus cells or 3D cell spheroids were seeded in dishes and cultured overnight. […]
# caspase-4 = test: Selectivity of probes: caspase-4; type: biochemical, human; details: caspase-4 2 U/mL, 37 °C, 2 h, λex 510 nm, λem 585 nm
# Excerpt: The resin used for SPPS was purchased from GL Biochem (Shanghai, China). Lipopolysaccharide (LPS, L2630), Nigericin and ATP (11140965001) were purchased from Merck (Shanghai, China) and Invitrogen (Shanghai, China), respectively. Cell culture plates were sourced from Wuxi NEST Biotechnology. Recombinant human caspase-1, caspase-3, caspase-4, and caspase-8 were obtained from Abcam and MCE (Shanghai, China). Anti-cleaved caspase-1 antibody, anti-GAPDH antibody, and goat anti-Rabbit/anti-mouse lgG/HRP were purchased from CST (USA) and Beyotime […]
# (Shanghai, China). […]
# Medical College (ethical approval number ZJCLA-IACUC-20011003). […]
# To investigate the sensitivity of the probes for caspase-1, varying concentration of caspase-1 (0, 0.2, 0.4, 0.6, 0.8, 1.0, 1.25, 1.5, 1.75, 2, 2.5, 3 U/mL) were incubated with FPy1 (5 μM), YPy1 (5 μM) and WPy1 (5 μM) respectively in caspase-1 assay buffer (50 mM HEPES, 50 mM NaCl, 0.1 % chaps, 5 % glycerol, 10 mM DTT, 10 mM EDTA) at 37 °C for 2 hours. Fluorescence spectra were recorded using Hitachi F-2700 spectrophotometer with an excitation at 510 nm (Photomultiplier voltage 700 V; Slit widths ex: 10 nm and em =5.0 nm). […] The limit of detection (LoD) was calculated from 3σ/k, in which σ represents the standard deviation of 15 blank measurements. […]
# 10 nm and em =5.0 nm). The fluorescence intensity of FPy1, YPy1 and WPy1 at 585 nm were plotted separately against […]
Substance,"intracellular fluorescence intensity, ATP stimulation (Cas-1 in THP-1 cells)","intracellular fluorescence intensity, Nig stimulation (Cas-1 in THP-1 cells)",fluorescence response to caspase-4 (caspase-4),"fluorescence increase relative to YPy1 (Cas-1 in THP-1 cells; 2 h of Nig or ATP stimulation, probe 5 μM)"
"–YVADG– [YPy1, caspase-1-responsive FRET probe with recognition peptide –YVADG–; RhoB donor, hNR quencher]",increased with prolonged stimulation time,increased with prolonged stimulation time,almost no response,–
"–FLTDG– [FPy1, RhoB donor, hNR quencher]",increased with prolonged stimulation time,increased with prolonged stimulation time,almost no response,slightly higher than that of YPy1
